We go through two compounds from PMC4939481 (Bioorganic & medicinal chemistry letters, 2016).

A value given as a limit tells only on which side of the number the result lay.

The target in experiment [1] is T1, recombinant human TDP2 (hTDP2) (Homo sapiens, UniProt O95551).
T1 sequence (O95551 1-362): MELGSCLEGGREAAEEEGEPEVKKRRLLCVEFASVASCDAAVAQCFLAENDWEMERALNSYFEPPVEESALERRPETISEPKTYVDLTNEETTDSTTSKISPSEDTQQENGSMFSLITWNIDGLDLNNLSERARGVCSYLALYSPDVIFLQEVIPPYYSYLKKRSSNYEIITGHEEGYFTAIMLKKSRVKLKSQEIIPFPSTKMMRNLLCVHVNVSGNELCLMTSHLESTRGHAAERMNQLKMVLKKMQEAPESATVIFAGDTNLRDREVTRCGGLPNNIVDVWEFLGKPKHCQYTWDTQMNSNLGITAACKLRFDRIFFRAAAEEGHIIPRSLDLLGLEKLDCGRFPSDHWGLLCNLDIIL
Description: Inhibition of recombinant human TDP2. Type of experiment: biochemical, H. sapiens.

Experiment [2] addresses recombinant human TDP1 (hTDP1) (Homo sapiens, UniProt Q9NUW8). Description: Inhibition of recombinant human TDP1. Type of experiment: biochemical, H. sapiens.

Sequence of recombinant human TDP1 (hTDP1) (Q9NUW8 whole entry): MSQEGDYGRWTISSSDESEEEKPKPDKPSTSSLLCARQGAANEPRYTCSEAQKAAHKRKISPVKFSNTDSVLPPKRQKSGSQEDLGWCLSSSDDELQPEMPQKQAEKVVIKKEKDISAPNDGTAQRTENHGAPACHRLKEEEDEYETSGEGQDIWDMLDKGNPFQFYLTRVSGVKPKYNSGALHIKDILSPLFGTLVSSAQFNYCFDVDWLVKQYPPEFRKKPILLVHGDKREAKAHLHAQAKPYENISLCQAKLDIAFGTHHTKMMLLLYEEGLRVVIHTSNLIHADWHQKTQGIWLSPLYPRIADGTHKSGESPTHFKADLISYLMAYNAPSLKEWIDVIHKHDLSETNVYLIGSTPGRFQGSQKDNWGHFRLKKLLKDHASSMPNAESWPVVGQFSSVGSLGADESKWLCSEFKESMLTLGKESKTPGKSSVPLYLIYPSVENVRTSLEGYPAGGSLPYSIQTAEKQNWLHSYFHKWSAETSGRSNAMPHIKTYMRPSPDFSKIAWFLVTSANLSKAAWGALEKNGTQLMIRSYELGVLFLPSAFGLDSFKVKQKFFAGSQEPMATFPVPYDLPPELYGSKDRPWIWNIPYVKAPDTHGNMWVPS

For the compound `COc1ccc(CC2C(=O)N(c3ccc([N+](=O)[O-])cc3)N=C2C(=O)O)cc1Oc1ccc(F)cc1` (stereo not drawn) [Compound 21], the results for the half-maximal inhibitory concentration (IC50) in experiment [1] and in experiment [2] were 20 µM and over 200 µM, respectively.

As to `O=C(Cc1ccccc1)NC(CSSCC(NC(=O)Cc1ccccc1)C(=O)O)C(=O)O` (stereo not drawn) [NSC3198], in experiment [1], the IC50 turned out to be 9.5 µM.

As usually defined, the IC50 is the concentration at which inhibition is half-maximal.
